Here are results for twelve molecules from article PMC3867265 (Science signaling, 2013).

To fix the notation:
B2: mouse melatonin receptor type 2 (MT2), Rluc8 and YFP fusion proteins (receptor, UniProt Q8CIQ6 1-364, looked up)
chain: MPENSSIPNCCEASGLAARPSWSGSAGARPPVTARAPWVAPMLSTVVVVTTAVDFVGNLLVILSVLRNRKLRNAGNLFVVSLALADLVIALYPYPLILVAIIRDGWVLGEAHCKASAFVMGLSVIGSVFNITAIAINRYCCICHSTTYHRVCSHWYTPIYISLVWLLTLVALVPNFFVGSLEYDPRIYSCTFIQTASTQYTAAVVAIHFLLPMAVVSFCYLRIWVLVLQARRKAKATRKLRLRPSDLRSFLTMFAVFVVFAICWAPLNCIGLAVAINPEAMALQVPEGLFVTSYFLAYFNSCLNAIVYGLLNQNFRREYKRILLAIWNTRRCIQHASKHCLTEERQGPTPPAARATVPVKEGAL
B3: mouse melatonin receptor type 1 (MT1), Rluc8 and YFP fusion proteins (receptor, UniProt Q61184 1-353, looked up)
chain: MKGNVSELLNATQQAPGGGEGGRPRPSWLASTLAFILIFTIVVDILGNLLVILSVYRNKKLRNSGNIFVVSLAVADLVVAVYPYPLVLTSILNNGWNLGYLHCQVSAFLMGLSVIGSIFNITGIAMNRYCYICHSLKYDKIYSNKNSLCYVFLIWMLTLIAIMPNLQTGTLQYDPRIYSCTFTQSVSSAYTIAVVVFHFIVPMIIVIFCYLRIWVLVLQVRRRVKPDNKPKLKPQDFRNFVTMFVVFVLFAICWAPLNLIGLIVASDPATMVPRIPEWLFVASYYLAYFNSCLNAIIYGLLNQNFRKEYKKIIVSLCTAKMFFVESSNEEADKIKCKPSPLIPNNNLIKVDSV

“Also recorded” adds a separate entry of the source.

In series [1] the test system is C3H-f+/+ mice. As to the kind of experiment: Scotopic. The class given is in vivo, mouse. The following applies: for effect on the melatonin-induced increase in the amplitude of the a- and b-wave: intravitreal antagonist, then melatonin i.p. 1 mg/kg; for amplitude of the a- and b-wave, compound alone: intravitreal injection alone, no melatonin.
In series [2] the target is T1, MT1 (Mus musculus, UniProt Q61184). The experiment in a line: cell-based.
In series [3] the target is T2, MT1/MT2 heteromers (Mus musculus, UniProt Q61184+Q8CIQ6). The experiment in a line: cell-based.
In another series the test system is mouse photoreceptors. The experiment in a line: Photoreceptor response. The class given is in vivo. The following applies: for effect on the melatonin-induced photoreceptor response (a-wave at 7 ms): intravitreal injection of the agent plus melatonin; for mimicking of the photoreceptor response to melatonin (a-wave at 7 ms): intravitreal injection of the agent.
The next series has as its target mouse MT1 receptor (Mus musculus, UniProt Q61184). The experiment in a line: Competition of 2-[125I]iodo-melatonin binding at mouse MT1. The following applies: mouse MT1, membranes of HEK293 cells.
In a further series the target is T3, mouse MT2 receptor (Mus musculus, UniProt Q8CIQ6).
T3 sequence (Q8CIQ6 1-364): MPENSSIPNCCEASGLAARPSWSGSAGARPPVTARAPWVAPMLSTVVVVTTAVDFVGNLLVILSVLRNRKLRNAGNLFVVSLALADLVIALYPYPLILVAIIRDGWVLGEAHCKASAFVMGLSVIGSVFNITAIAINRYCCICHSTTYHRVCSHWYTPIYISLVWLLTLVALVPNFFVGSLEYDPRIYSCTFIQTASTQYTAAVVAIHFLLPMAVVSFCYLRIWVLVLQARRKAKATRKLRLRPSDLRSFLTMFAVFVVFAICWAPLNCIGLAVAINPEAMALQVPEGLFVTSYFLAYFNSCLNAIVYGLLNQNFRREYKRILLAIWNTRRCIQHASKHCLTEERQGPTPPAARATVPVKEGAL
As to the kind of experiment: Competition of 2-[125I]iodo-melatonin binding at mouse MT2. The note with it: mouse MT2, membranes of HEK293 cells.

Series [4] concerns the target T1, MT1. The note with it: HEK293T cells expressing MT1 alone, compared with MT1/MT2 heteromers.
Series [5] addresses T2, MT1/MT2 heteromers.
A further series concerns the target MT1 and MT2 receptors (Mus musculus, UniProt Q61184+Q8CIQ6).
In series [6] the target is wild-type MT1 receptor with the inactive MT2-P95L mutant (Mus musculus, UniProt Q61184). The following applies: cells coexpressing wild-type MT1 with inactive MT2-P95L mutant.
Series [7] has as its system C3H-f+/+ mice. The note with it: exogenous administration during the day, wild-type mice; cited from earlier work.
The subject of another series is MT2-/- mice. The experiment in a line: Scotopic. The note with it: i.p. 1 mg/kg at ZT6, 1 h dark adaptation. The class given is in vivo, mouse.
For a further series, the target named is T4, MT2 (Mus musculus, UniProt Q8CIQ6).
T4 sequence (Q8CIQ6 1-364): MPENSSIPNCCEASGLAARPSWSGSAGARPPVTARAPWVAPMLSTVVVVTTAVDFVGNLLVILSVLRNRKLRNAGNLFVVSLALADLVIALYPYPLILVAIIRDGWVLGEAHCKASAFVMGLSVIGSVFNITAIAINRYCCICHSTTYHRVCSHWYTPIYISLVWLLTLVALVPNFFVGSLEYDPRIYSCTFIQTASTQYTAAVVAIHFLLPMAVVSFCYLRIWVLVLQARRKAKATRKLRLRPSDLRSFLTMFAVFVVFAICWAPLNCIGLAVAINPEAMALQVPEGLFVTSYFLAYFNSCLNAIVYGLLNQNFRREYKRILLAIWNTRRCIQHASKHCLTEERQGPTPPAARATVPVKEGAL
The experiment in a line: Inositol phosphate production, HEK293T cells expressing MT2 alone. The class given is cell-based.

Series [8] addresses T1, MT1. The following applies: HEK293T cells expressing MT1 alone.
The series “FRET or BRET” deals with the molecule itself. As to the kind of experiment: FRET or BRET.
In series [9] the target is B2. As to the kind of experiment: FRET or BRET. On the technique in general: BRET reads energy transfer from a luciferase to a nearby fluorophore.
Series [10] deals with B3. The experiment in a line: FRET or BRET.

The IC50 is the concentration that inhibits the measured activity by half. A word on the Ki: it is the equilibrium dissociation constant of an inhibitor or competing ligand from its target. Read a low Ki as a stronger hold on the target. One may read the EC50 as the concentration at which the effect is half-maximal. Read a low EC50 as an effect from little substance.

As for `CCC(=O)N[C@@H]1Cc2ccccc2[C@H](c2ccccc2)C1` (relative stereo) [4P-PDOT, cis-4-Phenyl-2-propionamidotetralin], in the series with C3H-f+/+ mice [1], the “effect on the melatonin-induced increase in the amplitude of the a- and b-wave” value is reported as “prevented the increase”; the “amplitude of the a- and b-wave, compound alone” value is “did not produce any significant changes”. On MT1 [2], the midpoint of inhibition, the IC50, lay at 5.8 ± 7.7 nM. The molecule further registered a concentration for half-maximal inhibition (IC50) on MT1/MT2 heteromers [3] of 4 ± 3.5 nM.
For the molecule `Nc1ncnc2c1nc(Br)n2[C@@H]1O[C@@H]2COP(=O)(O)O[C@H]2[C@H]1O` [8-br-cAMP, 8-bromoadenosine 3′,5′-cyclic monophosphate], the “effect on the melatonin-induced photoreceptor response (a-wave at 7 ms)” value (“effect … (a-wave at 7 ms)” below) in the series with mouse photoreceptors is recorded as “had no effect”.
`Cl.NC(CSSCC(N)C(=O)N1CCn2cc(-c3ccccc3)nc2C1CC1CCCCC1)C(=O)N1CCn2cc(-c3ccccc3)nc2C1CC1CCCCC1` (stereo not drawn) [BIM 46187, 7-[2-amino-1-oxo-3-thio-propyl]-8-cyclohexylmethyl-2-phenyl-5,6,7,8-tetrahydro-i midazo-[1,2a]-pyrazine dimer, hydrochloride]: the “effect … (a-wave at 7 ms)” value in the series on mouse photoreceptors was “inhibited”.
On to `CN1CCCC1CCn1cc(C2=C(c3c[nH]c4ccccc34)C(=O)NC2=O)c2ccccc21` (stereo not drawn) [Bisl, Bisindolylmaleimide II], for which the “block of the effect of exogenous melatonin on photoreceptors” value in the series with mouse photoreceptors (intravitreal PKC inhibitor plus melatonin) is on record as “about 40%”.
As for `Cl.Cl.O=S(=O)(NCCNC/C=C/c1ccc(Br)cc1)c1cccc2cnccc12` [H89, H-89 dihydrochloride hydrate], in the series on mouse photoreceptors, the “mimicking of the photoreceptor response to melatonin (a-wave at 7 ms)” value was “did not mimic” and the “effect … (a-wave at 7 ms)” value was “did not affect”.
Regarding `CCCC(=O)NCCc1c2n(c3ccc(OC)cc13)Cc1ccccc1-2` [IIK7], the values for the Ki on mouse MT1 receptor and on mouse MT2 receptor were 73 ± 23 nM and 0.052 ± 0.015 nM, respectively. Moreover, the “amplitude of the a- or b-wave” value with C3H-f+/+ mice [1] (intravitreal 50 nM (MT2-selective concentration), C3H-f+/+ mice) is recorded as “did not increase”. In addition, in the series on C3H-f+/+ mice [1] (intravitreal 5 μM (activates MT1 and MT2), C3H-f+/+ mice), the “amplitude of the a- and b-wave” value is on record as “significantly increased”.
Consider `CCCCCCCCCCCCCC(=O)O[C@@H]1[C@@H](C)[C@@]2(O)[C@@H](C=C(CO)C[C@]3(O)C(=O)C(C)=C[C@@H]23)[C@@H]2C(C)(C)[C@]12OC(C)=O` [PMA, Phorbol 12-myristate 13-acetate], for which, in the series with mouse photoreceptors, the “mimicking of the photoreceptor response to melatonin (a-wave at 7 ms)” value is on record as “mimicked” and the “effect … (a-wave at 7 ms)” value is recorded as “significantly reduced”.
In the case of `CC(=O)NCCc1c(Cc2ccccc2)[nH]c2ccccc12` [luzindole], in the series with C3H-f+/+ mice [1], the “effect on the melatonin-induced increase in the amplitude of the a- and b-wave” value is “prevented the increase”; the “amplitude of the a- and b-wave, compound alone” value is “did not produce any significant changes”.
Turning to `COc1ccc2[nH]cc(CCNC(C)=O)c2c1` [melatonin], the PKC activity result on MT1 [4] is recorded as “less potently”; on MT1/MT2 heteromers [5] (HEK293T cells expressing MT1/MT2 heteromers, increasing concentrations), “dose-dependently increased”. Moreover, the “photoreceptor response (a-wave at 7 ms)” value in the series with mouse photoreceptors (exogenous melatonin, ZT 6) is on record as “significantly increased”. Besides, the “PKC activity with coexpressed MT2-P95L” value on MT1/MT2 heteromers [5] (MT1/MT2 heteromers plus dominant negative MT2-P95L mutant, 100 nM melatonin) was “potently inhibited”. The “inhibition of cAMP production” value at MT1 and MT2 receptors was “not impaired but rather improved”. The entries for the “inositol phosphate production, result in words” value (in [6]; on MT2 (HEK293T cells expressing MT2 alone); at MT1 [8]) were “completely abolished”, “unable to modulate this pathway” and “inactive; also recorded: only at supra-physiological melatonin amount”, respectively. The “amplitudes of a- and b-waves of the scotopic ERG” value in the series with C3H-f+/+ mice [7] is “increases the amplitudes”. For the same molecule, the “changes in the dark-adapted ERG” value in the series on MT2-/- mice is “did not produce any changes”. Also, the EC50 at MT2 was found to be 51 nM.

B1: mouse MT2-P95L mutant, Rluc8 and YFP fusion proteins (receptor, UniProt Q8CIQ6 1-364, looked up)
chain: MPENSSIPNCCEASGLAARPSWSGSAGARPPVTARAPWVAPMLSTVVVVTTAVDFVGNLLVILSVLRNRKLRNAGNLFVVSLALADLVIALYPYLLILVAIIRDGWVLGEAHCKASAFVMGLSVIGSVFNITAIAINRYCCICHSTTYHRVCSHWYTPIYISLVWLLTLVALVPNFFVGSLEYDPRIYSCTFIQTASTQYTAAVVAIHFLLPMAVVSFCYLRIWVLVLQARRKAKATRKLRLRPSDLRSFLTMFAVFVVFAICWAPLNCIGLAVAINPEAMALQVPEGLFVTSYFLAYFNSCLNAIVYGLLNQNFRREYKRILLAIWNTRRCIQHASKHCLTEERQGPTPPAARATVPVKEGAL
On to B1, for which the BRET50 in the series “FRET or BRET” came out at 2.61; in [9] it was 1.52; in [10], 3.48.
Regarding B2, the BRET50 in [10] turned out to be 1.67.
In turn, B3 showed a BRET50 in “FRET or BRET” of 0.71.
